{"source": "patent US7160684B2", "about": "“Methods of selecting compounds for modulation of bladder function” (Wyeth, priority 2000, dated 2007)", "key": {"[1]": {"system": "isolated rat bladder smooth muscle cell", "test": "Voltage clamp recording of outward current, rat cells", "format": "cell-based", "description": "(§1) Rat detrusor cells are isolated in a manner previously described for guinea-pig detrusor (Sheldon J H, Norton N W and Argentieri T M (1997) Inhibition of guinea pig detrusor contraction by NS-1619 is associated with activation of BKCa and inhibition of calcium currents. J Pharmacol Exp Thera 283(3): 1193–1200). Male Sprague-Dawley rats (Charles River, Wilmington, Mass.; 200–400 grams) are euthanized by CO2 inhalation and exsanguination. Their urinary bladders are rapidly removed and placed in 37° C. physiological solution with the following composition (mM): Na glutamate (80.0), NaCl (54.7), KCl (5.0), NaHCO3 (25.0), MgCl2.2H2O (2.5), D-glucose (11.8) and CaCl2 (0.2) gassed with O2—CO2, 95%/5% for a final pH of 7.4. The dome of the bladder is isolated from the trigone region and the mucosa is removed. This tissue is then cut into 2–3 mm wide strips and placed into fresh buffer for 1 hour. Tissues are then transferred into 10 ml of an isolation buffer containing the above composition plus collagenase type VIII (1.0 mg/ml) and pronase (0.25 mg/ml). After 10 minutes the isolation buffer is replaced with fresh isolation buffer for an additional 10 min. The tissue is then washed 3 times in fresh collagenase and pronase free solution and stored at room temperature until studied. Cells for study are prepared by triturating 1–2 pieces of detrusor tissue in 2 ml of fresh isolation buffer for 5 minutes with a polished Pasteur pipette, (tip diameter ˜1.5 mm) attached to a modified Harvard Respirator pump (Harvard Apparatus, Southnatic, Mass.) at a rate of 20×/min. with an approximate volume of 5 ml. Cells are then placed on a microscope stage in a temperature regulated tissue bath at 32.5° C. and continually superfused with PSS.\n(§2) Single cell recordings are performed with a List-Medical EPC-7 patch clamp amplifier (Adams & List Assoc., Westbury, N.Y.). Pipette electrodes had tip resistances of 2–4 MΩ and are filled with the following composition (mM): KCl (126.0), MgCl2.6H2O (4.5), ATP Mg salt (4.0), GTP tris salt (0.3), creatine PO4 (14.0), D-glucose (9.0), EGTA (9.0), HEPES (9.0). The pH is adjusted to 7.4 with KOH. Signals are acquired (3 kHz high frequency cut-off, 12 bit resolution) using a 586-based personal computer.\nWhole cell recordings are made using broken patch access. Currents are evoked using either voltage steps (Vh=−50; Vt=−60 to 40 mV) or voltage ramps (−60 to 40 mV at 3.3 mV/sec.). The exact voltage clamp protocols are well known in the art. After stability is achieved control currents are recorded. Next, test compound is added to the superfusate. Currents are recorded for 5 to 10 minutes or until compound effects reach steady state. This is followed either by washout or addition of antagonists (linopirdine, XE-991) to the superfusate. […]"}, "[2]": {"system": "isolated rat bladder strips", "test": "Isolated rat bladder strip contraction", "conditions": "strips precontracted with 20 mM KCl; for antagonism of the effects of retigabine on bladder strip contractions: 10 μM antagonist", "protocol": "Male Sprague-Dawley rats (200–400 grams) are euthanized by CO2 inhalation and exsanguination. Their urinary bladders are rapidly removed and placed in […] physiological salt solution (PSS) that contained the following (mM): NaCl (118.4), KCl (5), CaCl2 (2.5), MgSO4 (1.2), KH2PO4 (1.2), NaHCO3 (24.9) and D-glucose (11.1) gassed with O2/CO2 (95% /5%) to achieve a pH of 7.4. The dome of the bladder is isolated from the trigon region and this tissue is then cut into 4–5 mm wide by 10 mm long strips. One end is secured to the bottom of a water jacketed tissue bath and the other to a GRASS isometric force transducer (Grass Instruments, Quincy, Mass.). Tissues are pretensioned (0.25 to 0.5 grams), and after 30 minutes of equilibration are contracted with an additional 15 mM KCl (total of 20 mM) and again allowed to equilibrate until the preparations are contracting steadily. Any of a variety of compounds are administered directly into the tissue baths as sequential concentrations. Transducer signals are digitized (12 bit resolution) and analyzed on-line using a 586-based computer and custom software. The area under the contraction curve (AUC) is used as a measure of contractility since the spontaneous bladder contractions are irregular in amplitude and frequency. A 5-minute AUC value is taken 30 minutes after administration of each compound concentration to the tissue bath.\nWe isolated rat bladder strips from male Sprague-Dawley rats as previously described, (Wojdan, A., Freeden, C., Woods, M., Oshiro, G., Spinelli, W. et al., J Pharmacol Exp Therap 289: 1410–1418 (1999)) and precontracted them with 20 mM KCl. The KCNQ channel agonist retigabine, was added to the tissue bath in increasing concentrations, and area under the contraction curve was analyzed.\nIn another study, isolated rat bladder strips were precontracted with 60 mM KCl (FIG. 1).\nThe difference in IC50s between 20 and 60 mM KCl depolarizations are consistent with a potassium channel opening mechanism.\nRat bladder strips were isolated and prepared as previously described (Wojdan, A., Freeden, C., Woods, M., Oshiro, G., Spinelli, W. et al., J Pharmacol ExpTherap 289:1410–1418 (1999)). Preparations were contracted with either 20 or 60 mM KCl, or 200 nM carbachol. A five minute area under the contraction curve was acquired 20 minutes after addition of each concentration of retigabine using a 12 bit D/A and a 586 based personal computer running custom software. Message for KCNQ subunits was probed using quantitative rtPCR on an ABI PRISM 7700 Sequence Detection System (TAQMAN). Forward and reverse primers and TAQMAN probes were designed using published RNA sequences for human KCNQ1–5 and rat KCNQ 1–4 listed within the NCBI data base. Since no rat sequence for KCNQ5 were currently published, probes and primers were designed by BLAST analysis of rat Expressed Sequence Tags (EST) using the known mouse KNCQ5 sequence. From homologous EST sequences, a contiguous sequence of 384 base pairs was constructed. Probes and primers were designed against this sequence. BLAST analysis of our rat KCNQ5 probes and primer were selective for mouse and human KCNQ5 sequences. PCR products were confirmed by gel electrophoresis (data not shown). Cells for electrophysiology were prepared from rat bladder smooth muscle as previously described (Wojdan et al., 1999). Human bladder smooth muscle cells were obtained from Clonetics, San Diego, Calif. […]"}, "[3]": {"system": "isolated rat bladder smooth muscle cell", "test": "Current clamp recording of resting membrane potential, rat cells", "format": "cell-based", "description": "as §1, §2\nCell resting membrane potential (RMP) is measured in current clamp using the above mentioned instrumentation and pipette solutions. For these experiments nystatin is also added to the pipette solution (100 μg/ml) to allow recording through utilization of the perforated patch technique (Korn, et al, 1991). […] After this time, various antagonists (linopirdine, XE-991) are added to the perfusate and RMP is recorded for an additional 5 minutes. […]"}, "[4]": {"system": "cultured human bladder smooth muscle cells", "test": "Voltage clamp recording of outward current, human cells", "format": "cell-based", "conditions": "XE-991 (10 μM in FIG. 3d)", "protocol": "as §2\nWhole cell recordings are made using broken patch access. Currents are evoked using either voltage steps (Vh=−50; Vt=−60 to 40 mV) or voltage ramps (−60 to 40 mV at 3.3 mV/sec.). The exact voltage clamp protocols are well known in the art. After stability is achieved control currents are recorded. Next, test compound is added to the superfusate. Currents are recorded for 5 to 10 minutes or until compound effects reach steady state. This is followed either by washout or addition of antagonists (linopirdine, XE-991) to the superfusate.\nCellular electrophysiological studies were conducted using both voltage and current clamp techniques (Hammill, O., P., Marty, A., Neher, E., Sakmann, B. & Sigworth, F. J.: Improved patch-clamp techniques for high-resolution current recordings from cells and cell-free membrane patches. Pflugers Arch 391: 85–100 (1981)) from Sprague-Dawley rat (200–400 grams) bladders as previously described, (Wojdan, A., Freeden, C., Woods, M., Oshiro, G., Spinelli, W. et al., J. Pharmacol Exp Therap 289: 1410–1418 (1999)) and from a human bladder, primary cell culture (Colnetics, San Diego, Calif.). In rat cells, the average, control resting membrane potential (RMP) was −29.0±4.5 mV. […]\nRat bladder strips were isolated and prepared as previously described (Wojdan, A., Freeden, C., Woods, M., Oshiro, G., Spinelli, W. et al., J Pharmacol ExpTherap 289:1410–1418 (1999)). […] Message for KCNQ subunits was probed using quantitative rtPCR on an ABI PRISM 7700 Sequence Detection System (TAQMAN). […]"}}, "data": [{"molecule": "iberiotoxin (QFTDVDCSVSKECWSVCKDLFGVDRGKCMGKKCRCYQ; UniProt P24663 1-37, looked up)", "values": [{"measurement": "sensitivity of retigabine-induced increase in outward current to blocker", "setting": "[1]; 100 nM iberiotoxin", "result": "not sensitive"}]}, {"molecule": "O=C1c2ccccc2C(Cc2ccncc2)(Cc2ccncc2)c2ccccc21", "note": "[XE-991, 10,10-bis(4-pyridinylmethyl)-9(10H)-anthracenone]", "values": [{"measurement": "antagonism of the effects of retigabine on bladder strip contractions", "setting": "[2]", "result": "94.8±17.5", "unit": "%"}, {"measurement": "reversal of retigabine-induced hyperpolarization", "setting": "[3]; 10 μM XE-991 after 10 μM retigabine", "result": "completely reversed"}, {"measurement": "effect on membrane potential relative to initial RMP", "setting": "[3]; 10 μM XE-991 after retigabine", "result": "depolarized the cell below its initial RMP"}, {"measurement": "reversal of retigabine-induced increase in outward current", "setting": "[1]; XE-991 10 μM", "result": "partially reversed"}, {"measurement": "reversal of retigabine-induced changes (hyperpolarization, outward current)", "setting": "[4]", "result": "partially reversed"}]}, {"molecule": "COc1ccc(Cl)cc1C(=O)NCCc1ccc(S(=O)(=O)NC(=O)NC2CCCCC2)cc1", "note": "[glyburide]", "values": [{"measurement": "reversal of the effects of retigabine on bladder strip contractions", "setting": "[2]; glyburide 10 μM", "result": "not reversed"}]}, {"molecule": "O=C1N(c2ccccc2)c2ccccc2C1(Cc1ccncc1)Cc1ccncc1", "note": "[linopirdine]", "values": [{"measurement": "antagonism of the effects of retigabine on bladder strip contractions", "setting": "[2]", "result": "94.8±17.5", "unit": "%"}, {"measurement": "reversal of retigabine-induced increase in outward current", "setting": "[1]; linopirdine 50 μM", "result": "partially reversed"}]}]}
